{"source": "patent US12605374B2", "about": "“Methods for drug screening and compositions useful for the inhibition of cell proliferation and/or cell survival” (The Brigham and Women's Hospital, Inc., priority 2019, dated 2026)", "key": {"[1]": {"test_system": "Phospholipase D (Streptomyces chromofuscus)", "assay": "In vitro Phospholipase D activity assay (Amplex Red kit)", "assay_type": "biochemical", "details": "listed as DA5"}, "[2]": {"test_system": "embryonic zebrafish", "assay": "Blinded re-screen of top 10 prioritized ChemBridge compounds for developmental phenotypes in embryonic zebrafish", "assay_type": "in vivo", "protocol": "Male and female wild-type (AB) fish were housed and embryos bred for screening using standard protocols. […] 10 mM compound stocks were diluted to 2 mM using DMSO, and 1 μL of each diluted compound solution was introduced into individual wells at 5 hours post fertilization (hpf) using a manual multichannel pipettor (10 uM final concentration). The first and last column of each plate received only DMSO, serving as negative control wells.\nEmbryos were screened for a series of developmental phenotypes at both 24 and 48 hpf using standard light microscopy. […] Only those wells where at least two of the three embryos were dead or delayed were annotated as a hit for 24 hour death or delay/arrest, respectively.\nResulting scores for each phenotype were used to rank the over 900,000 compounds. Enrichment for compounds with high (>0.95) similarity to known therapeutics (defined using Tanimoto Coefficient of molecular fingerprints) was calculated for each of the 6 ranked lists using gene set enrichment analysis^69. The top 10 highest-ranking compounds from each of the 6 lists were screened as described above, blinded and in duplicate."}, "[3]": {"test_system": "Human osteosarcoma cells (U-2 OS)", "assay": "EdU proliferation assay in human cell line", "assay_type": "cell-based", "details": "osteoblastic / immortalized cells (U-2 OS), four hours after drug introduction; positive control c-Myc inhibitor 10058-F4", "protocol": "FIG. 16 (A)-(C): Effect of DA5 in human cell culture. Proliferation of osteoblastic cells was measured following introduction of DA5.\nHuman osteosarcoma cells (U-2 OS) were obtained from ATCC (HTB-96) and re-suspended in McCoy's 5a medium (ATCC 30-2007) containing 10% FBS and penicillin/streptomycin. Cells were passaged at least 5 times before use in proliferation assays. To perform the proliferation assay, cells were trypsinized using standard protocols, plated at 1000 cells per well in 96-well clear-bottom black cell culture treated plates, and allowed 24 hours to attach. Compounds of interest were dissolved in DMSO and introduced at an overall DMSO concentration not exceeding 0.1% by volume. Four hours after drug introduction, cells were stained and fixed using the protocol described in the Click-iT EdU Alexa Fluor 488 Imaging kit (Thermo Fisher), with Hoescht staining used to identify total cell numbers. Each well was imaged using a Nikon Eclipse Ti Epifluorescent microscope with automated stage and counts of dividing and total cells were obtained in an automated fashion using Nikon's NIS Elements software. Percent of dividing cells reported is the result of at least 4 replicates. Controls were given the same DMSO concentration by volume as compound-treated wells."}}, "note": "Entries after “also recorded” stand apart in the source; their conditions may differ."}
{"smiles": "CCC1(CC)CCN(C(=O)c2cc(COc3ccc4ncccc4c3)on2)C1", "note": "[ChemBridge ID 65692859, 6-([3-[(3,3-diethylpyrrolidin-1-yl)carbonyl]isoxazol-5-yl]methoxy)quinoline]", "values": [{"measurement": "activity of phospholipase D", "setting": "[1]", "result": "decrease in the activity; also recorded: inhibit phospholipase D activity"}, {"measurement": "Hit (predicted phenotype observed)", "setting": "[2]; Prediction: Delay/Arrest", "result": "Yes"}, {"measurement": "Phenotype Observed", "setting": "[2]; embryonic zebrafish, 10 uM introduced at 5 hpf, scored at 24 and 48 hpf, blinded, in duplicate", "result": "Bud stage at 24 h, dead at 48 h"}, {"measurement": "suppression of cell proliferation", "setting": "[3]", "result": "greater than that seen with positive control"}]}
